{"source": "patent US20040019082A1", "about": "“Reversible infertility in male mice following oral administration of alkylated imino sugars: a non-hormonal approach to male contraception” (United Therapeutics Corporation, priority 2002, published 2004)", "format_in_all_cases": "in vivo, mouse", "key": {"male C57BL/6 mice": {"system": "male C57BL/6 mice", "assay": "Mating assay, fertility of male mice", "details": "250 mg/kg/day", "text": "Treatment of mice—Male C57BL/6 mice were housed under standard non-sterile conditions. The mice were provided with water ad lib. and prior to drug administration were fed a diet of pelleted mouse chow (expanded Rat and Mouse Chow 3, SDS Ltd.) To administer the compounds of the present invention, the mice were fed a diet of powdered mouse chow (expanded Rat and Mouse Chow 1, ground, SDS Ltd.) containing either NB-DNJ, NB-DGJ, NN-6-MeDGJ, or DNJ. The diet and compound (both as dry solids) were mixed thoroughly, stored at room temperature, and used within 7 days of mixing.\nMating assays—To assess the fertility of male mice that were fed on a diet containing an iminosugar, a mating assay was used: typically six week old male C57BL/6 mice in groups of three were administered diet containing compound for five weeks (unless otherwise specified), after which each of them was caged with four untreated female C57BL/6 mice, and provided with standard pelleted chow. Females were at least 11 weeks old, and age-matched in each experiment. The male was removed from the females after 7 or 9 days, depending on the experiment; the females were monitored for vaginal mucous plugs, pregnancies, and, if any, litter sizes. To study any effect on female fertility six-week-old female C57BL/6 mice were treated with NB-DNJ for five weeks, after which each of them was caged with a non-treated age-matched male for four days."}, "[1]": {"assay": "Body, gonad and organ weights of treated mice"}, "liver glycogen": {"system": "liver glycogen", "assay": "Liver glycogen levels in fed or starved mice", "details": "250 mg/kg/day", "protocol": "Liver glycogen levels were measured in untreated and NN-DGJ-treated mice (FIG. 6B), who were either provided food or starved."}}, "data": [{"smiles": "CCCCCCCCCN1C[C@H](O)[C@@H](O)[C@@H](O)[C@H]1CO", "note": "[NN-DGJ]", "values": [{"measurement": "fertility of male mice", "setting": "male C57BL/6 mice; after five weeks of treatment, four treated mice", "value": "completely suppressed"}, {"measurement": "litter size compared with untreated males", "setting": "male C57BL/6 mice; six weeks after withdrawal", "value": "almost the same"}, {"measurement": "fertility of male mice after withdrawal", "setting": "male C57BL/6 mice; six weeks following withdrawal", "value": "fully regained fertility"}, {"measurement": "thymus and spleen weights", "setting": "[1]; 250 mg/kg/day", "value": "did not affect"}, {"measurement": "body weight relative to untreated mice", "setting": "[1]; 250 mg/kg/day over a 40 day period, n=8", "value": "did not affect"}, {"measurement": "breakdown of liver glycogen during starvation", "setting": "liver glycogen", "value": "did not inhibit"}]}]}
